Measurements from patent US8324189B2, “Use of zolendronate for the manufacture of a medicament for the treatment of bone metabolism diseases” (Novartis Pharmaceuticals Corporation, priority 2001, dated 2012).

How the values were obtained:
[1] = controlled trials in cancer patients: percentage of patients showing a skeletal related adverse event; format: in vivo, human
Procedure: The 4 mg dose of zoledronic acid has been determined to be clinically effective in several controlled trials in cancer patients, with placebo or the bisphosphonate pamidronate as comparator.

[2] = renal adverse events (increase in serum creatinine over baseline) in clinical studies; format: in vivo, human
[3] = tested on: prostate cancer cell lines; conditions: in vitro treatment; cited from earlier work
[4] = pharmacokinetic study of zoledronic acid in cancer patients with bone metastases (plasma concentration, urinary excretion); format: in vivo, human; conditions: for Cmax: human, plasma, intravenous
Procedure: FIG. 1. Plasma concentrations in patients after 4 mg zoledronic acid infused over 5 minutes and 15 minutes (mean data for n=5 patients in 4 mg/5 min group, n=7 patients in 4 mg/15 min group, study 503 [2]
• 1. The volume of 100 ml containing 4 mg zoledronic acid is infused over 15 minutes as an intravenous drip, which allows the drug to be administered at a uniform and precise rate. […] The pharmacokinetic parameters derived from the individual patients' plasma concentration versus time curves, and urinary excretion of drug are tabulated below.

[5] = tested on: subcutaneous prostate cancer cell line tumours; conditions: cited from earlier work
[6] = renal adverse events (increase in serum creatinine over baseline) in clinical studies; format: in vivo, human; conditions: for incidence of renal adverse events / incidence of renal adverse events (patients with event / patients): 4 mg
Procedure: The dose of 4 mg zoledronic acid infused over 15 minutes offers a safety advantage in terms of renal tolerability over the shorter infusion time of 5 minutes. The lower incidence of renal adverse events with zoledronic acid infused over 15 minutes versus 5 minutes is summarized below. Renal adverse events are defined as increases in a patient's serum creatinine over baseline, by ≦0.5 mg/dL if baseline <1.4 mg/dL, by ≦1 mg/dL if baseline […], by ≦2-fold irrespective of baseline value.

[7] = tested on: osteoclastic bone resorption; conditions: animal models, cited from earlier work
[8] = Study 10, breast cancer patients
[9] = Study 10, multiple myeloma patients
[10] = 4 mg infused over 5 minutes, n = 5
[11] = 4 mg infused over 15 minutes, n = 7
[12] = Study 10, breast cancer and multiple myeloma patients, 5 minutes infusion
[13] = Study 10, breast cancer and multiple myeloma patients, 15 minutes infusion
[14] = Study 11, lung cancer patients, 5 minutes infusion
[15] = Study 11, lung cancer patients, 15 minutes infusion
[16] = Study 39, prostate cancer patients, 5 minutes infusion
[17] = Study 39, prostate cancer patients, 15 minutes infusion

Structure (SMILES): NCCC(O)(P(=O)(O)O)P(=O)(O)O [pamidronate, disodium pamidronate]
- Percentage of patients showing a skeletal related adverse event [1, 8]: 47%
- Percentage of patients showing a skeletal related adverse event [1, 9]: 49%
- renal tolerability (incidence of renal adverse events) ([2]; 90 mg infused over 2 hours): 8.2%

Structure (SMILES): O=P(O)(O)C(O)(Cn1ccnc1)P(=O)(O)O [zoledronic acid, 1-hydroxy-2-(imidazol-1-yl)ethane-1,1-diphosphonic acid]
- growth of prostate cancer cell lines [3]: significantly reduced the growth of the cell lines
- efficacy versus Aredia (disodium pamidronate) 90 mg dosed over 2-4 hours ([1]; 4 mg infused over approximately 15 minutes): comparable efficacy
- Percentage of patients showing a skeletal related adverse event [1, 8]: 42%
- Percentage of patients showing a skeletal related adverse event [1, 9]: 47%
- Percentage of patients showing a skeletal related adverse event ([1]; Study 11, hypercalcemic lung cancer patients): 42%
- Percentage of patients showing a skeletal related adverse event ([1]; Study 11, hypercalcemic patients with other solid tumors): 33%
- Percentage of patients showing a skeletal related adverse event ([1]; Study 39, prostate cancer patients): 33%
- efficacy over placebo in the treatment of bone metastases ([1]; double blind, placebo-controlled clinical study, prostate cancer patients): statistically significant efficacy benefit over placebo
- Differences in AUC, 15 minutes versus 5 minutes infusion ([4]; 4 mg): not significant
- Differences in Ae, 15 minutes versus 5 minutes infusion ([4]; 4 mg): not significant
- Differences in mean Cmax, 15 minutes versus 5 minutes infusion ([4]; 4 mg): statistically significant
- AUC 0-24 h [4, 10]: 378 ± 116 ngxh/ml
- Ae 0-24 h (amount of drug excreted in urine) [4, 10]: 38.7 ± 6.34 % of dose
- AUC 0-24 h [4, 11]: 420 ± 218 ngxh/ml
- Ae 0-24 h (amount of drug excreted in urine) [4, 11]: 37.4 ± 17.0 % of dose
- Cmax ([4]; 4 mg, 4 mg infused over 5 minutes, n = 5, cancer patients with bone metastases): 403 ± 118 ng/mL
- Cmax ([4]; 4 mg, 4 mg infused over 15 minutes, n = 7, cancer patients with bone metastases): 264 ± 86 ng/mL
- renal safety versus higher doses of zoledronic acid, 8 mg and 16 mg ([2]; 4 mg infused over 15 minutes): improved renal safety
- tumour volume [5]: no significant decrease in tumour volume
- renal safety versus 4 mg/5 minutes and higher zoledronic acid dose/15 minutes ([6]; 4 mg/15 minutes): improved renal safety
- incidence of renal adverse events [6, 12]: 13.2%
- incidence of renal adverse events (patients with event / patients) [6, 12]: 36/272 patients
- incidence of renal adverse events [6, 13]: 8.8%
- incidence of renal adverse events (patients with event / patients) [6, 13]: 24/272 patients
- incidence of renal adverse events ([6]; Study 10, breast cancer and multiple myeloma patients, 15 minutes infusion, listed as Zoledronic acid): 8.8%
- incidence of renal adverse events [6, 14]: 16.4%
- incidence of renal adverse events (patients with event / patients) [6, 14]: 10/61 patients
- incidence of renal adverse events [6, 15]: 10.9%
- incidence of renal adverse events (patients with event / patients) [6, 15]: 18/165 patients
- incidence of renal adverse events [6, 16]: 19.8%
- incidence of renal adverse events (patients with event / patients) [6, 16]: 22/111 patients
- incidence of renal adverse events [6, 17]: 15.2%
- incidence of renal adverse events (patients with event / patients) [6, 17]: 14/78 patients
- impact on renal function ([7]; doses inhibiting bone resorption): no appreciable impact on renal function
- inhibition of osteoclastic bone resorption versus earlier generation bisphosphonates ([7]; doses that do not affect bone formation and mineralization): inhibits osteoclastic bone resorption more effectively than earlier generation bisphosphonates
